According to paper PMC7570665 (2020):

What was measured:
[1] = system: T10-7.t5 (XNA, aptamer, all-TNA (alpha-L-threose nucleic acid, 3'-2'); 7-deaza-7-phenyl-guanine in place of every guanine) CTTTTAAGAACCGGACGAACTAGAATATTATATTTT; assay: competitive equilibrium filtration; details: 5 mM MgCl2, 300 mM NaCl; 20 mM Tris-HCl pH 7.6; displaces γ-32P-ATP; 4 °C in methods, 24 °C in legend; highest concentration not stated
[2] = system: T10-7.t5 (XNA, aptamer, all-TNA (alpha-L-threose nucleic acid, 3'-2'); 7-deaza-7-phenyl-guanine in place of every guanine) CTTTTAAGAACCGGACGAACTAGAATATTATATTTT; assay: equilibrium filtration, γ-32P-ATP, Hill fit; details: 5 mM MgCl2, 300 mM NaCl; 20 mM Tris-HCl pH 7.6; 4 °C in methods, 24 °C in legend; apparent

## Nc1ccn([C@@H]2O[C@H](COP(=O)(O)OP(=O)(O)OP(=O)(O)O)[C@@H](O)[C@H]2O)c(=O)n1
[1]
  Kd: > 2000 µM

## Nc1nc2c(ncn2[C@@H]2O[C@H](COP(=O)(O)OP(=O)(O)OP(=O)(O)O)[C@@H](O)[C@H]2O)c(=O)[nH]1
[1]
  Kd: > 2000 µM

## Nc1ncnc2c1ncn2[C@@H]1O[C@H](COP(=O)(O)OP(=O)(O)OP(=O)(O)O)[C@@H](O)[C@H]1O
[2]
  KD: 22 ± 5 µM

## O=c1ccn([C@@H]2O[C@H](COP(=O)(O)OP(=O)(O)OP(=O)(O)O)[C@@H](O)[C@H]2O)c(=O)[nH]1
[1]
  Kd: > 2000 µM
